This passage reports MIC results from patent US5679675A, “8-amino-10-(azabicycloalkyl)-pyrido[1,2,3-d,e][1,3,4]benzoxadiazine derivatives” (Bayer Aktiengesellschaft, priority 1994, dated 1997).

SMILES strings stand for the structures. ≈ marks a conversion by molar mass, not a printed value. Read-outs that look alike come from different tables or passages of the source. Where only a bound is given, the exact number is not on record here.

Assay in all cases: MIC, serial dilution method on Iso-Sensitest agar
Common to all, as to format: cell-based

Experiment [1] has as its system Klebsiella pneumoniae. To be noted: 37° C., about 20 hours. The procedure:
(§1) The minimum inhibitory concentrations (MIC) of the compounds according to the invention were determined by serial dilution methods on Iso-Sensitest agar (Oxoid). For each test substance, a series of agar plates was prepared which contained decreasing concentrations of the active compound at, in each case, double dilution. The agar plates were inoculated with a multipoint inoculator (Denley). For inoculation, overnight cultures of the pathogens were reed which had previously been diluted such that each inoculation point contained about 10^4 colony-forming particles. The inoculated agar plates were incubated at 37° C., and the growth of microorganism was read off after about 20 hours. The MIC value (μg/ml) indicates the lowest active compound concentration at which no growth was to be detected with the naked eye.

Experiment [2] concerns Providencia sp. To be noted: 20 h, about 20 hours. The procedure: as §1
Experiment [3] concerns Acinetobacter. To be noted: strain 14068, 37° C., about 20 hours. The procedure: as §1
The test system of experiment [4] is Enterococcus faecalis. As to conditions: 20 h, about 20 hours. The protocol:
as §1

Experiment [5] concerns Micrococcus luteus. As to conditions: strain 9341, 37° C., about 20 hours. The protocol:
as §1

In experiment [6] the test system is E. coli. As to conditions: Escherichia coli, 37° C., about 20 hours. The procedure:
as §1

In experiment [7] the test system is Staphylococcus aureus. To be noted: about 20 hours. The procedure: as §1
Where [8] appears, read: Klebsiella pneumoniae, strain 8085, read-out: MIC.
Where [9] appears, read: ATCC29213, 20 h, strain ATCC 29213, 37° C.

`CN1COc2c(N3C[C@H]4[C@H](N)CC=C[C@H]4C3)c(F)c(N)c3c(=O)c(C(=O)O)cn1c23` (relative stereo) [Example 11, 8-Amino-10-((1SR,2RS,6RS)-2-amino-8-azabicyclo[4.3.0]non-4-en-8-yl)-9-fluoro-3-methyl-7-oxo-2,3-dihydro-7H-pyrido[1,2,3-d,e][1,3,4]benzoxadiazine-6-carboxylic acid]: the MIC was at most 0.015 µg/mL in experiment [1] (setting [8]); at most 0.015 µg/mL in experiment [1] (strain 63); at most 0.015 µg/mL in experiment [2] (strain 12012, 37° C.); 16 µg/mL (≈ 38.5 µM) in experiment [2] (strain 12052, 37° C.); at most 0.015 µg/mL in experiment [3]; at most 0.015 µg/mL in experiment [4] (strain 9790, 37° C.). The MIC in experiment [4] (strain 27101, 37° C.) is at most 0.015 µg/mL; in experiment [5], 0.5 µg/mL (≈ 1.2 µM); in experiment [6] (ATCC25922, strain ATCC 25922) it was at most 0.015 µg/mL; in experiment [6] (strain Neumann), at most 0.015 µg/mL; in experiment [7] (20 h, strain 133, 37° C.) it was at most 0.015 µg/mL; in experiment [7] (20 h, strain ICB 25701, 37° C.), 0.5 µg/mL (≈ 1.2 µM). Also, the minimum inhibitory concentration (MIC) in experiment [7] (20 h, strain ICB 25768, 37° C.) was 16 µg/mL (≈ 38.5 µM); in experiment [7] (setting [9]), at most 0.015 µg/mL.
In the case of `CNC1C=CCC2CN(c3c(F)c(N)c4c(=O)c(C(=O)O)cn5c4c3OCN5C)CC21` (centres unmarked) [Example 4, 8-Amino-9-fluoro-3-methyl-10-(2-methylamino-8-azabicyclo[4.3.0]non-3-en-8-yl)-7-oxo-2,3-dihydro-7H-pyrido[1,2,3-d,e][1,3,4]benzoxadiazine-6-carboxylicacid], the MIC is 0.06 µg/mL (≈ 0.14 µM) in experiment [1] (setting [8]); 0.06 µg/mL (≈ 0.14 µM) in experiment [1] (strain 63); 0.06 µg/mL (≈ 0.14 µM) in experiment [2] (strain 12012, 37° C.); 4 µg/mL (≈ 9.31 µM) in experiment [2] (strain 12052, 37° C.); at most 0.015 µg/mL in experiment [3]; 0.06 µg/mL (≈ 0.14 µM) in experiment [4] (strain 9790, 37° C.). Further, the MIC in experiment [4] (strain 27101, 37° C.) is 0.06 µg/mL (≈ 0.14 µM); in experiment [5], at most 0.015 µg/mL; in experiment [6] (ATCC25922, strain ATCC 25922), 0.03 µg/mL (≈ 0.0699 µM); in experiment [6] (strain Neumann), 0.03 µg/mL (≈ 0.0699 µM); in experiment [7] (20 h, strain 133, 37° C.), at most 0.015 µg/mL; in experiment [7] (20 h, strain ICB 25701, 37° C.), 0.5 µg/mL (≈ 1.16 µM). In addition, the minimal inhibitory concentration (MIC) in experiment [7] (20 h, strain ICB 25768, 37° C.) is 1 µg/mL (≈ 2.33 µM); in experiment [7] (setting [9]) it was at most 0.015 µg/mL.
Regarding `CN1COc2c(N3CC4CC=CC(N)C4C3)c(F)c(N)c3c(=O)c(C(=O)O)cn1c23` (centres unmarked) [Example 5, 8-Amino-10-(2-amino-8-azabicyclo[4.3.0]non-3-en-8-yl)-9-fluoro-3-methyl-7-oxo-2,3-dihydro-7H-pyrido[1,2,3-d,e][1,3,4]benzoxadiazine-6-carboxylic acid], the MIC is 0.03 µg/mL (≈ 0.0722 µM) in experiment [1] (setting [8]); 0.03 µg/mL (≈ 0.0722 µM) in experiment [1] (strain 63); at most 0.015 µg/mL in experiment [2] (strain 12012, 37° C.); 2 µg/mL (≈ 4.81 µM) in experiment [2] (strain 12052, 37° C.); at most 0.015 µg/mL in experiment [3]; 0.03 µg/mL (≈ 0.0722 µM) in experiment [4] (strain 9790, 37° C.). Moreover, the MIC in experiment [4] (strain 27101, 37° C.) is 0.03 µg/mL (≈ 0.0722 µM); in experiment [5], at most 0.015 µg/mL; in experiment [6] (ATCC25922, strain ATCC 25922) it was at most 0.015 µg/mL; in experiment [6] (strain Neumann) it was at most 0.015 µg/mL; in experiment [7] (20 h, strain 133, 37° C.), at most 0.015 µg/mL; in experiment [7] (20 h, strain ICB 25701, 37° C.), 0.125 µg/mL (≈ 0.301 µM). In addition, the MIC in experiment [7] (20 h, strain ICB 25768, 37° C.) was 0.25 µg/mL (≈ 0.602 µM); in experiment [7] (setting [9]), at most 0.015 µg/mL.
For `CC1C=CC(N)C2CN(c3c(F)c(N)c4c(=O)c(C(=O)O)cn5c4c3OCN5C)CC12` (centres unmarked) [Example 7, 8-Amino-10-(2-amino-5-methyl-8-azabicyclo[4.3.0]non-3-en-8-yl)-9-fluoro-3-methyl-7-oxo-2,3-dihydro-7-H-pyrido[1,2,3-d,e][1,3,4]benzoxadiazine-6-carboxylic acid], the MIC was 0.03 µg/mL (≈ 0.0699 µM) in experiment [1] (setting [8]); 0.03 µg/mL (≈ 0.0699 µM) in experiment [1] (strain 63); 0.03 µg/mL (≈ 0.0699 µM) in experiment [2] (strain 12012, 37° C.); 2 µg/mL (≈ 4.66 µM) in experiment [2] (strain 12052, 37° C.); at most 0.015 µg/mL in experiment [3]; 0.03 µg/mL (≈ 0.0699 µM) in experiment [4] (strain 9790, 37° C.). For the same compound, the MIC in experiment [4] (strain 27101, 37° C.) is at most 0.015 µg/mL; in experiment [5], at most 0.015 µg/mL; in experiment [6] (ATCC25922, strain ATCC 25922), at most 0.015 µg/mL; in experiment [6] (strain Neumann), at most 0.015 µg/mL; in experiment [7] (20 h, strain 133, 37° C.), at most 0.015 µg/mL; in experiment [7] (20 h, strain ICB 25701, 37° C.), 0.25 µg/mL (≈ 0.582 µM). Besides, the MIC was 0.5 µg/mL (≈ 1.16 µM) in experiment [7] (20 h, strain ICB 25768, 37° C.) and at most 0.015 µg/mL in experiment [7] (setting [9]).

The MIC is the smallest concentration in the dilution series that meets the test's criterion for growth inhibition.
